Results as given in the supplement of paper PMC10307832.

What was measured:
Assay in all cases: relative viability (nuclei count vs DMSO), 5 days (fraction); higher = more cells survive
Vemurafenib + Foretinib = compound: CCCS(=O)(=O)Nc1ccc(F)c(C(=O)c2c[nH]c3ncc(-c4ccc(Cl)cc4)cc23)c1F [Vemurafenib] + COc1cc2c(Oc3ccc(NC(=O)C4(C(=O)Nc5ccc(F)cc5)CC4)cc3F)ccnc2cc1OCCCN1CCOCC1 [Foretinib] (partner 0.25 µM)
Summary of the method: (§1)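 Lung cancer cell lines in 1536-well plates were dosed by pin tool the day after seeding, either with one drug alone or with a fixed anchor-drug dose plus five library-drug doses (not always all listed) in √10 steps. After 5 days, cells were fixed and their nuclei stained in one step (final 0.05% Triton X-100, 1% formaldehyde, 1 ug/ml Hoechst), then counted on 4× images. Relative viability is the nuclei count in treated wells divided by that in vehicle wells. Values are medians of duplicate plates.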

Alpelisib + Pemetrexed = compound: Cc1nc(NC(=O)N2CCC[C@H]2C(N)=O)sc1-c1ccnc(C(C)(C)C(F)(F)F)c1 [Alpelisib] + Nc1nc2[nH]cc(CCc3ccc(C(=O)N[C@@H](CCC(=O)O)C(=O)O)cc3)c2c(=O)[nH]1 [Pemetrexed] (partner 0.2 µM)
Summary of the method: as §1

Alpelisib + OSI-027 = compound: Cc1nc(NC(=O)N2CCC[C@H]2C(N)=O)sc1-c1ccnc(C(C)(C)C(F)(F)F)c1 [Alpelisib] + COc1cccc2cc(-c3nc([C@H]4CC[C@H](C(=O)O)CC4)n4ncnc(N)c34)[nH]c12 [OSI-027] (partner 0.5 µM)
Summary of the method: as §1

Vemurafenib + Bortezomib = compound: CCCS(=O)(=O)Nc1ccc(F)c(C(=O)c2c[nH]c3ncc(-c4ccc(Cl)cc4)cc23)c1F [Vemurafenib] + CC(C)C[C@H](NC(=O)[C@H](Cc1ccccc1)NC(=O)c1cnccn1)B(O)O [Bortezomib] (partner 0.002 µM)
Summary of the method: as §1

Cell Line	relative viability (Vemurafenib + Foretinib; first compound 0.03162 µM)	relative viability (Vemurafenib + Foretinib; first compound 0.1 µM)	relative viability (Vemurafenib + Foretinib; first compound 0.3162 µM)	relative viability (Vemurafenib + Foretinib; first compound 1 µM)	relative viability (Alpelisib + Pemetrexed; first compound 0.04 µM)	relative viability (Alpelisib + Pemetrexed; first compound 0.1265 µM)	relative viability (Alpelisib + Pemetrexed; first compound 0.4 µM)	relative viability (Alpelisib + Pemetrexed; first compound 1.265 µM)	relative viability (Alpelisib + Pemetrexed; first compound 4 µM)	relative viability (Alpelisib + OSI-027; first compound 0.04 µM)	relative viability (Alpelisib + OSI-027; first compound 0.1265 µM)	relative viability (Alpelisib + OSI-027; first compound 0.4 µM)	relative viability (Alpelisib + OSI-027; first compound 1.265 µM)	relative viability (Alpelisib + OSI-027; first compound 4 µM)	relative viability (Vemurafenib + Bortezomib; first compound 0.03162 µM)	relative viability (Vemurafenib + Bortezomib; first compound 0.1 µM)	relative viability (Vemurafenib + Bortezomib; first compound 0.3162 µM)	relative viability (Vemurafenib + Bortezomib; first compound 1 µM)
HOP-62	1.06	1.08	0.916	1.05	0.342	0.28	0.364	0.26	0.297	0.822	0.793	0.949	0.626	0.589	0.814	0.868	0.648	1.07
IA-LM	1.16	1.26	1.08	0.981	–	–	–	–	–	–	–	–	–	–	0.802	0.764	0.822	0.598
LC-2-ad	0.859	0.705	–	1.01	0.276	0.276	0.275	0.267	0.271	0.783	0.692	0.712	0.478	0.416	0.918	0.956	0.829	0.976
LCLC-97TM1	0.974	0.854	0.985	0.971	0.177	0.17	0.183	0.174	0.127	0.434	0.391	0.243	0.181	0.1	0.495	0.587	0.528	0.742
LCLC-103H	0.668	0.685	0.704	0.69	0.476	0.488	0.506	0.47	0.333	0.486	0.439	0.435	0.372	0.335	0.975	1.04	0.843	1.09
LK-2	1.37	0.913	1.09	0.915	0.247	0.252	0.213	0.209	0.199	0.215	0.208	0.16	0.142	0.158	–	–	–	–
LOU-NH91	0.914	–	–	0.975	0.398	0.385	0.486	0.407	0.404	0.754	0.601	0.638	0.543	0.49	0.478	0.467	–	0.534
LU99A	0.87	0.867	0.819	0.723	0.187	0.188	0.193	0.154	0.159	0.306	0.3	0.296	0.234	0.224	1.02	1.07	1.05	1.04
NCI-H358	0.638	0.494	0.886	0.858	0.196	0.163	0.145	0.143	0.145	0.558	0.767	0.572	0.292	0.121	–	–	–	–
NCI-H522	–	–	–	–	1.07	1.03	1.1	0.946	0.72	0.722	0.622	0.605	0.629	0.5	–	–	–	–
NCI-H727	0.883	0.768	1.31	0.969	–	–	–	–	–	0.753	0.397	0.522	0.359	0.391	0.927	0.812	1.35	0.54
NCI-H1299	1.05	1.06	1	1.09	–	–	–	–	–	–	–	–	–	–	0.998	0.976	0.918	1
NCI-H1395	1.02	0.976	–	1.01	0.96	0.747	0.92	0.718	0.714	0.593	0.558	0.717	0.588	0.634	–	–	–	–
NCI-H1623	0.896	–	1.03	0.768	–	–	–	–	–	0.494	0.338	0.383	0.34	0.28	–	–	–	–
NCI-H1648	–	–	–	–	0.661	0.743	0.894	0.559	0.482	–	0.229	0.244	0.282	0.228	–	–	–	–
NCI-H1703	0.358	0.307	0.329	0.374	–	–	–	–	–	–	–	–	–	–	0.527	0.438	0.32	0.257
NCI-H1792	–	–	–	–	0.897	0.479	0.992	0.688	0.462	0.653	0.866	0.677	0.44	0.292	0.875	0.951	0.721	0.957
NCI-H1793	0.789	–	0.709	0.922	0.879	0.855	0.977	0.614	0.596	0.284	0.24	0.228	0.195	0.161	–	–	–	–
NCI-H1944	0.868	0.614	0.879	0.837	0.596	0.695	0.677	0.5	0.502	0.365	0.401	0.332	0.281	0.223	–	–	–	–
NCI-H2170	0.907	0.858	1	1.02	0.277	0.23	0.281	0.29	0.265	0.695	0.612	0.663	0.589	0.39	–	–	–	–
NCI-H2342	1.14	0.943	1.05	0.942	0.843	0.77	0.694	0.686	0.447	0.626	0.594	0.553	0.559	0.421	–	–	–	–
SK-MES-1	0.91	0.461	0.879	0.795	0.954	0.955	1.07	0.868	0.689	0.57	0.541	0.553	0.442	0.351	–	–	–	–
SW 900	1.11	0.693	0.801	0.924	0.513	–	0.476	0.497	0.405	0.527	0.524	0.742	0.568	0.45	–	–	–	–
